The results in this text go back to US20240002369A1, “NOVEL TREATMENTS OF ATTENTION DEFICIT/HYPERACTIVITY DISORDER” (priority 2020, published 2024).

Structures can show the parent of a compound that is named as a salt. Marks after values point to notes of the source that are not given here.

One data set has as its system Lphn3.1 HOM larvae. Put plainly: Sleep behavior in freely moving zebrafish larvae during lights-off period. The note with it: for comparison of all sleep parameters (summary): 1, 10, 30 μM, FIG. 6A-6D. How it is done: This assay provides a measure of muscle weakness and/or motor coordination, which co-occurs with certain sleep states, but can also occur independently of sleep. […] Thus, to evaluate the effect of moxonidine on sleep behavior, the sleep behavior in freely moving zebrafish (Lphn3.1 HOM larvae) following treatment with moxonidine, a comparator compound, or negative control (i.e. saline or vehicle control) was assessed in line with the criteria described by Levitas-Djerbi et al., (Curr Opin Neurobiol. 2017; 44:89-93) and Sorribes et al., (Front Neural Circuits. 2013 Nov. 13; 7:178).
In brief, sleep behavior was recorded in a 96-well plate and analysed during the lights-off period (22:00-08:00). First, all behavior was dichotomized into 1-s bins of movement or non-movement. […] All activity that was slower than that threshold was computed as non-movement. Thus, rendering a dichotomized record of the behavior in either movement or non-movement. Next, the dichotomized record was transformed into bins of sleep and wake. Following previously established sleep criteria in adults, and adapted to larval fish (Yokogawa et al., PLoS Biol. 2007; 5(10):2379-97, Sorribes et al., Front Neural Circuits. 2013; 7:178, and Sigurgeirsson et al., Behav Brain Res. 2013; 256:377-90), six or more consecutive 1-s bins of non-movement were counted as sleep and all else was counted as wake. That is, the seventh second and above were classified as sleep; all other bouts were classified as wake. Once the number of sleep and wake bouts was calculated, five different sleep parameters were assessed (i.e. sleep fragmentation, sleep ratio, velocity during sleep, wake bout duration(s), and sleep bout duration(s)). Sleep fragmentation was defined as the number of transitions between sleep and wake bouts per hour. Sleep ratio was calculated as the percentage of total night time that the fish was considered asleep. Velocity during sleep (mm/s) was defined as the average velocity throughout the night time. Wake bout duration(s) was defined as the average length of wake bouts. Sleep bout duration(s) was defined as the average length of sleep bouts.

Data set [1] has as its system scopolamine-induced cognitive dysfunction. The experiment in a line: T-maze alternation test, scopolamine-induced cognitive dysfunction model. The data set is classed as in vivo, Male CD-1 mice. The note with it: vs scopolamine-exposed mice; p<0.0001; FIG. 4. An excerpt:
Male CD-1 mice aged 4-5 weeks were allocated to a T-maze to perform the T-maze alternation test as described by Andriambeloson et al., 2014 (Pharma Res Per, 2 (4), 2014, e00048, included herein by reference). In brief, each mouse was placed in a T-maze consisting of a main stem and two arms. The experiment consisted of one “forced-choice” trial and 14 “free-choice” trials to evaluate the number of spontaneous alternations.

A further data set has as its system Lphn3.1 WT larvae. The experiment in a line: Motor assay in wild-type zebrafish larvae. The data set is classed as in vivo, zebrafish (Danio rerio).
[2] abbreviates: 1 uM vs HOM - DMSO, average length of sleep bouts.
Setting [3] is: 1 uM vs HOM - DMSO, average length of wake bouts.
Where [4] appears, read: 1 uM vs HOM - DMSO, average velocity throughout the night time.
Where [5] appears, read: 1 uM vs HOM - DMSO, share of total night time asleep.
[6] abbreviates: 1 uM vs HOM - DMSO, transitions between sleep and wake bouts per hour, lights-off 22:00-08:00.
The mark [7] stands for this setting: 10 uM vs HOM - DMSO, average length of sleep bouts.
The mark [8] stands for this setting: 10 uM vs HOM - DMSO, average length of wake bouts.
Where [9] appears, read: 10 uM vs HOM - DMSO, average velocity throughout the night time.
The mark [10] stands for this setting: 10 uM vs HOM - DMSO, share of total night time asleep.
[11] abbreviates: 10 uM vs HOM - DMSO, transitions between sleep and wake bouts per hour, lights-off 22:00-08:00.
[12] abbreviates: 30 uM vs HOM - DMSO, average length of sleep bouts.
[13] abbreviates: 30 uM vs HOM - DMSO, average length of wake bouts.
The mark [14] stands for this setting: 30 uM vs HOM - DMSO, average velocity throughout the night time.
The mark [15] stands for this setting: 30 uM vs HOM - DMSO, share of total night time asleep.
Where [16] appears, read: 30 uM vs HOM - DMSO, transitions between sleep and wake bouts per hour, lights-off 22:00-08:00.
[17] abbreviates: Lphn3.1 HOM, zebrafish, in vivo, 10 h, 1 uM.
Setting [18] is: Lphn3.1 HOM, zebrafish, in vivo, 10 h, 10 uM.
[19] abbreviates: Lphn3.1 HOM, zebrafish, in vivo, 10 h, 30 uM.

On to `Clc1cccc(Cl)c1N=C1NCCN1` [Clonidine, clonidine], for which the “SleepDuration (sleep bout duration) Mean Difference (I − J)” value is on record as −4.177* s in the data set with Lphn3.1 HOM larvae (setting [2]), −4.388* s with Lphn3.1 HOM larvae (setting [7]) and −6.197* s in the data set on Lphn3.1 HOM larvae (setting [12]). Besides, the “WakeDuration (wake bout duration) Mean Difference (I − J)” value is recorded as 2.095* s in the data set with Lphn3.1 HOM larvae (setting [3]), 2.1* s with Lphn3.1 HOM larvae (setting [8]) and 8.132* s in the data set on Lphn3.1 HOM larvae (setting [13]). In addition, the “Velocity (during sleep) Mean Difference (I − J)” value in the data set on Lphn3.1 HOM larvae (setting [4]) is reported as “.08382* mm/s”; in the data set on Lphn3.1 HOM larvae (setting [9]), “.09470* mm/s”; in the data set on Lphn3.1 HOM larvae (setting [14]) it was “.23026* mm/s”. Besides, the “SleepRatio Mean Difference (I − J)” value is reported as “−.12630*” with Lphn3.1 HOM larvae (setting [5]), “−.13226*” in the data set with Lphn3.1 HOM larvae (setting [10]) and “−.24115*” in the data set with Lphn3.1 HOM larvae (setting [15]). Also, the “SleepFragmentation Mean Difference (I − J)” value in the data set on Lphn3.1 HOM larvae (setting [6]) is 11.79*; in the data set with Lphn3.1 HOM larvae (setting [11]) it was 12.98*; in the data set on Lphn3.1 HOM larvae (setting [16]) it was −7.699. Also, in the data set with Lphn3.1 HOM larvae, the “comparison of all sleep parameters (summary)” value is “drastically altered all sleep parameters at the majority of doses tested”.
With `N=C(N)NC(=O)Cc1c(Cl)cccc1Cl` [Guanfacine, guanfacine], in the data set with Lphn3.1 HOM larvae (setting [17]), the “SleepDuration (sleep bout duration) Mean Difference (I − J)” value is reported as 3.64* s, the “SleepFragmentation Mean Difference (I − J)” value is on record as −1.812, the “SleepRatio Mean Difference (I − J)” value was “.12336*” and the “Velocity (during sleep) Mean Difference (I − J)” value was “−.08559* mm/s”. Further, in the data set on Lphn3.1 HOM larvae (setting [17]), the “WakeDuration (wake bout duration) Mean Difference (I − J)” value is recorded as −3.163* s. Moreover, in the data set with Lphn3.1 HOM larvae (setting [18]), the “SleepDuration (sleep bout duration) Mean Difference (I − J)” value was found to be 1.224 s, the “SleepFragmentation Mean Difference (I − J)” value came to 7.4424, the “SleepRatio Mean Difference (I − J)” value is given as “.06927*” and the “Velocity (during sleep) Mean Difference (I − J)” value was “−.07521* mm/s”. Further, in the data set on Lphn3.1 HOM larvae (setting [18]), the “WakeDuration (wake bout duration) Mean Difference (I − J)” value is on record as −2.542* s. For the same compound, in the data set with Lphn3.1 HOM larvae (setting [19]), the “SleepDuration (sleep bout duration) Mean Difference (I − J)” value is listed as 2.369* s, the “SleepFragmentation Mean Difference (I − J)” value is 1.559, the “SleepRatio Mean Difference (I − J)” value was “.09806*” and the “Velocity (during sleep) Mean Difference (I − J)” value is recorded as “−.08512* mm/s”. For the same compound, the “WakeDuration (wake bout duration) Mean Difference (I − J)” value with Lphn3.1 HOM larvae (setting [19]) is −2.735* s.
With `CNCC[C@@H](Oc1ccccc1C)c1ccccc1` [atomoxetine, atomoxetine hydrochloride], the “SleepDuration (sleep bout duration) Mean Difference (I − J)” value with Lphn3.1 HOM larvae (setting [2]) was 8.266* s; in the data set on Lphn3.1 HOM larvae (setting [7]) it was 6.306* s; with Lphn3.1 HOM larvae (setting [12]), 9.808* s. Further, the entries for the “WakeDuration (wake bout duration) Mean Difference (I − J)” value in the data set on Lphn3.1 HOM larvae (setting [3]), with Lphn3.1 HOM larvae (setting [8]) and in the data set with Lphn3.1 HOM larvae (setting [13]) were −2.547* s, -1.806 s and −3.112* s, respectively. Further, the “Velocity (during sleep) Mean Difference (I − J)” value with Lphn3.1 HOM larvae (setting [4]) is recorded as “−.09320* mm/s”; in the data set on Lphn3.1 HOM larvae (setting [9]), “−.03944* mm/s”; in the data set with Lphn3.1 HOM larvae (setting [14]) it was “−.10640* mm/s”. For the same compound, the “SleepRatio Mean Difference (I − J)” value is “.18730*” with Lphn3.1 HOM larvae (setting [5]), “.15382*” with Lphn3.1 HOM larvae (setting [10]) and “.22326*” in the data set on Lphn3.1 HOM larvae (setting [15]). For the same compound, the “SleepFragmentation Mean Difference (I − J)” value in the data set on Lphn3.1 HOM larvae (setting [6]) was −23.58*; in the data set on Lphn3.1 HOM larvae (setting [11]), −19.14*; in the data set with Lphn3.1 HOM larvae (setting [16]) it was −26.47*. In addition, the “comparison of all sleep parameters (summary)” value in the data set on Lphn3.1 HOM larvae is listed as “drastically altered all sleep parameters at the majority of doses tested”. Further, the “spontaneous alternations, rescue of scopolamine effect” value in data set [1] was “rescued”. For the same compound, the “velocity in wild-type larvae” value with Lphn3.1 WT larvae is on record as “increase velocity”.
